Results from patent US4196205A, “3-Acetoxymethyl-7-(iminoacetamido)-cephalosporanic acid derivatives” (priority 1976, dated 1980).
In brackets after ≈: the same amount, converted by molar mass. Read-outs that look alike come from different tables or passages of the source.

Key:
Assay in all cases: MIC, dilution in liquid medium
Format in all cases: cell-based
[1] = system: Bacillus subtilis ATCC 6 633; conditions: Bacillus subtilis
Protocol: (§1) The method used was a dilution of a liquid medium where a series of tubes received the same quantity of a sterile nutritive media and increasing doses of the test compounds were placed therein. Then each tube was seeded with a bacterial strain and was incubated for 24 to 48 hours at 37° C. in an oven. The increasing inhibition was determined by transillumination to determine the minimum inhibiting concentration (MIC in […]) and the results are reported in the following Tables.

Enterobacter cloacae 681 = system: Enterobacter cloacae 681
Protocol: as §1

[2] = system: Escherichia Coli Exp. TO26 B6; conditions: Escherichia coli
Protocol: as §1

[3] = system: Escherichia Coli Resistant Gentamicine, Tobramycine R 55 123 D; conditions: Escherichia coli, read-out: M.I.C.
Protocol: as §1

[4] = system: Escherichia Coli Resistant Tetracycline ATCC 11 303 = UC 1261; conditions: Escherichia coli
Protocol: as §1

[5] = system: Escherichia Coli Sensible Tetracycline ATCC 9 637 = 1020; conditions: Escherichia coli
Protocol: as §1

[6] = system: Klebsiella pneumoniae 2 536 Resistant Gentamicine; conditions: Klebsiella pneumoniae
Protocol: as §1

[7] = system: Klebsiella pneumoniae Exp. 52 145; conditions: Klebsiella pneumoniae
Protocol: as §1

[8] = system: Proteus mirabilis (indol-) A 235; conditions: Proteus mirabilis, read-out: M.I.C.
Protocol: as §1

Providencia Du 48 = conditions: Providencia
Protocol: as §1

[9] = system: Salmonella typhimurium 420; conditions: Salmonella enterica, TYPHIMURIUM
Protocol: as §1

[10] = system: Serratia Resistant Gentamicine 2 532
Protocol: as §1

[11] = system: Staphylococcus aureus ATCC 5 638 Pen-Sensible = UC 1061
Protocol: as §1

[12] = system: Staphylococcus aureus UC 1 128 Pen-Resistant; conditions: Staphylococcus aureus
Protocol: as §1

[13] = system: Staphylococcus aureus exp. n° 54 146; conditions: Staphylococcus aureus
Protocol: as §1

[14] = system: Streptococcus faecalis 5 432
Protocol: as §1

[15] = system: Streptococcus faecalis 99 F 74; conditions: Enterococcus faecalis
Protocol: as §1

[16] = system: Streptococcus pyogenes A 561; conditions: Streptococcus pyogenes, read-out: M.I.C.
Protocol: as §1

[17] = Enterobacter cloacae, 681, 24 h
[18] = Enterococcus faecalis, 5432, 24 h, 24 H
[19] = Enterococcus faecalis, 5432, 48 h, 48 H

SMILES	MIC ([1]; ATCC6, 48 h, 48 H) [µg/mL]	MIC (Enterobacter cloacae 681; [17]) [µg/mL]	MIC ([2]; 24 h) [µg/mL]	MIC ([2]; 48 h) [µg/mL]	MIC ([3]; 24 h) [µg/mL]	MIC ([3]; 48 h) [µg/mL]	MIC ([8]; 24 h) [µg/mL]	MIC ([8]; 48 h) [µg/mL]	MIC (Providencia Du 48; DU48, 24 h, 24 H) [µg/mL]	MIC (Providencia Du 48; DU48, 48 h, 48 H) [µg/mL]	MIC ([9]; 24 h, read-out: M.I.C.) [µg/mL]	MIC ([10]; 24 h) [µg/mL]	MIC ([12]; UC1, 24 h, 24 H) [µg/mL]	MIC ([12]; UC1, 48 h, 48 H) [µg/mL]	MIC ([13]; 24 h) [µg/mL]	MIC ([13]; 48 h) [µg/mL]	MIC [14, 18] [µg/mL]	MIC [14, 19] [µg/mL]	MIC ([16]; A561, 24 h, 24 H) [µg/mL]	MIC ([16]; A561, 48 h, 48 H) [µg/mL]	further results
CC(=O)OCC1=C(C(=O)O)N2C(=O)C(NC(=O)/C(=N\O)c3csc(N)n3)C2SC1 (stereo not drawn) [Example 28, syn isomer of 7-[2-(2-amino-4-thiazolyl)-2-hydroxyiminoacetamido]-3-acetoxymethyl-ceph-3-eme-4-carboxylic acid]	1 (≈ 2.27 µM)	5 (≈ 11.3 µM)	0.05 (≈ 0.113 µM)	0.1 (≈ 0.227 µM)	0.2 (≈ 0.453 µM)	0.2 (≈ 0.453 µM)	0.1 (≈ 0.227 µM)	0.2 (≈ 0.453 µM)	2 (≈ 4.53 µM)	2 (≈ 4.53 µM)	0.1 (≈ 0.227 µM)	5 (≈ 11.3 µM)	1 (≈ 2.27 µM)	1 (≈ 2.27 µM)	1 (≈ 2.27 µM)	1 (≈ 2.27 µM)	5 (≈ 11.3 µM)	5 (≈ 11.3 µM)	0.02 (≈ 0.0453 µM)	0.02 (≈ 0.0453 µM)	MIC ([1]; ATCC6, 24 h, 24 H, read-out: M.I.C.): 0.5 µg/mL (≈ 1.13 µM); MIC (Enterobacter cloacae 681; Enterobacter cloacae, 681, 48 h, read-out: M.I.C.): 10 µg/mL (≈ 22.7 µM); MIC ([4]; 24 h): 0.1 µg/mL (≈ 0.227 µM); MIC ([4]; 48 h): 0.1 µg/mL (≈ 0.227 µM); MIC ([5]; ATCC9, 24 h, 24 H): 0.05 µg/mL (≈ 0.113 µM); MIC ([5]; ATCC9, 48 h, 48 H): 0.1 µg/mL (≈ 0.227 µM); MIC ([6]; 24 h, read-out: M.I.C.): 0.2 µg/mL (≈ 0.453 µM); MIC ([6]; 48 h, read-out: M.I.C.): 0.5 µg/mL (≈ 1.13 µM); MIC ([7]; EXP.52145, 24 h, 24 H): 0.05 µg/mL (≈ 0.113 µM); MIC ([7]; EXP.52145, 48 h, 48 H): 0.1 µg/mL (≈ 0.227 µM); MIC ([9]; 48 h): 0.1 µg/mL (≈ 0.227 µM); MIC ([10]; 48 h, read-out: M.I.C.): 10 µg/mL (≈ 22.7 µM); MIC ([11]; 24 h, read-out: M.I.C.): 0.5 µg/mL (≈ 1.13 µM); MIC ([11]; 48 h, read-out: M.I.C.): 0.5 µg/mL (≈ 1.13 µM); MIC ([15]; 99F74, 24 h, read-out: M.I.C.): 10 µg/mL (≈ 22.7 µM); MIC ([15]; 99F74, 48 h, 48 H): 40 µg/mL (≈ 90.6 µM)
C=CO/N=C(\C(=O)NC1C(=O)N2C(C(=O)O)=C(COC(C)=O)CSC12)c1csc(N)n1 (stereo not drawn) [Product B, syn isomer of 3-acetoxymethyl-7-[2-(2-amino-4-thiazolyl)-2-vinyloxyimino-acetamido]-ceph-3-eme-4-carboxylic acid]	5 (≈ 10.7 µM)	3 (≈ 6.42 µM)	0.2 (≈ 0.428 µM)	0.2 (≈ 0.428 µM)	0.5 (≈ 1.07 µM)	0.5 (≈ 1.07 µM)	≤ 0.02	≤ 0.02	2 (≈ 4.28 µM)	2 (≈ 4.28 µM)	0.5 (≈ 1.07 µM)	1 (≈ 2.14 µM)	1 (≈ 2.14 µM)	1 (≈ 2.14 µM)	1 (≈ 2.14 µM)	2 (≈ 4.28 µM)	3 (≈ 6.42 µM)	5 (≈ 10.7 µM)	≤ 0.02	≤ 0.02	MIC ([1]; ATCC6, 24 h, 24 H): 2 µg/mL (≈ 4.28 µM); MIC (Enterobacter cloacae 681; Enterobacter cloacae, 681, 48 h): 5 µg/mL (≈ 10.7 µM); MIC ([4]; 24 h, read-out: M.I.C.): 0.05 µg/mL (≈ 0.107 µM); MIC ([4]; 48 h, read-out: M.I.C.): 0.95 µg/mL (≈ 2.03 µM); MIC ([5]; ATCC9, 24 h, 24 H, read-out: M.I.C.): 0.5 µg/mL (≈ 1.07 µM); MIC ([5]; ATCC9, 48 h, 48 H, read-out: M.I.C.): 0.5 µg/mL (≈ 1.07 µM); MIC ([6]; 24 h): 1 µg/mL (≈ 2.14 µM); MIC ([6]; 48 h): 2 µg/mL (≈ 4.28 µM); MIC ([7]; EXP.52145, 24 h, 24 H, read-out: M.I.C.): ≤ 0.02 µg/mL; MIC ([7]; EXP.52145, 48 h, 48 H, read-out: M.I.C.): ≤ 0.02 µg/mL; MIC ([9]; 48 h, read-out: M.I.C.): 0.5 µg/mL (≈ 1.07 µM); MIC ([10]; 48 h): 2 µg/mL (≈ 4.28 µM); MIC ([11]; 24 h): 1 µg/mL (≈ 2.14 µM); MIC ([11]; 48 h): 1 µg/mL (≈ 2.14 µM); MIC ([15]; 99F74, 24 h, 24 H): 5 µg/mL (≈ 10.7 µM); MIC ([15]; 99F74, 48 h, read-out: M.I.C.): 10 µg/mL (≈ 21.4 µM)
